Source: patent US9376442B2, “Methylpyrrolopyrimidinecarboxamides” (Takeda GmbH, priority 2009, dated 2016)

Molecular target: T1, PDE5A1 (Homo sapiens, UniProt O76074)
T1 construct: from tissue; host or cells: human platelets from fresh donor blood (10,000 x g supernatant of sonicated lysate)
Test: Inhibition of type 5 phosphodiesterase (PDE5) activity, modified SPA test with human platelet lysate
Assay type: biochemical
Conditions: 0.5 μM cGMP, read-out: PDE5A1 inhibitory values [measured as −log IC50 (mol/l)] (converted)
In short: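 Scintillation proximity assay with [3H]cGMP tracer at 0.5 μM total cGMP, stopped after 15 min with beads containing IBMX. PDE3 and PDE2 activities suppressed with motapizone (1 μM) and a PDE2 inhibitor (10 nM). Human platelet supernatant served as the enzyme, with compound preincubated 5 min at 37° C; IC50 values from concentration-effect curves.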

IC50 | Structure (SMILES)
< 1 nM | COc1cc(OCC2CC2)c(-c2ncnc3c(C(=O)N[C@@H]4CN(C(=O)[C@H](C)O)C[C@H]4O)c(C)[nH]c23)cc1F (relative stereo) [Example F118, 4-[2-(Cyclopropylmethoxy)-5-fluoro-4-methoxyphenyl]-N-{(3R*,4R*)-4-hydroxy-1-[(2S)-2-hydroxypropanoyl]pyrrolidin-3-yl}-6-methyl-5H-pyrrolo[3,2-d]pyrimidine-7-carboxamide]
1 to 10 nM | Cc1[nH]c2c(-c3cc(F)ccc3OCC3CC3)ncnc2c1C(=O)N[C@@H]1CCN(C(=O)CO)C[C@H]1O (relative stereo) [Example F30, 4-[2-(Cyclopropylmethoxy)-5-fluorophenyl]-N-[(3R*,4R*)-3-hydroxy-1-(hydroxyacetyl)piperidin-4-yl]-6-methyl-5H-pyrrolo[3,2-d]pyrimidine-7-carboxamide]
< 1 nM | COc1ccc(-c2ncnc3c(C(=O)N[C@@H]4CN(C(=O)CO)C[C@H]4O)c(C)[nH]c23)c(OCC2CC2)c1 (relative stereo) [Example F39, 4-[2-(Cyclopropylmethoxy)-4-methoxyphenyl]-N-[(3R*,4R*)-1-glycoloyl-4-hydroxypyrrolidin-3-yl]-6-methyl-5H-pyrrolo[3,2-d]pyrimidine-7-carboxamide]
< 1 nM | CCc1ccc(OCC2CC2)c(-c2ncnc3c(C(=O)NC4CCN(C(=O)[C@H](C)O)CC4)c(C)[nH]c23)c1 [Example F92, 4-[2-(Cyclopropylmethoxy)-5-ethylphenyl]-N-{1-[(2S)-2-hydroxypropanoyl]piperidin-4-yl}-6-methyl-5H-pyrrolo[3,2-d]pyrimidine-7-carboxamide]
< 1 nM | COc1cc(OCC2CC2)c(-c2ncnc3c(C(=O)N[C@H]4CC[C@H](NC(=O)[C@H](C)O)CC4)c(C)[nH]c23)cc1F [Example F86, 4-[2-(Cyclopropylmethoxy)-5-fluoro-4-methoxyphenyl]-N-(trans-4-{[(25)-2-hydroxypropanoyl]amino}cyclohexyl)-6-methyl-5H-pyrrolo[3,2-d]pyrimidine-7-carboxamide]
1 to 10 nM | CCOc1ccc(F)cc1-c1ncnc2c(C(=O)NC3CCN(C(=O)[C@H](C)O)CC3)c(C)[nH]c12 [Example F33, 4-(2-Ethoxy-5-fluorophenyl)-N-{1-[(2S)-2-hydroxypropanoyl]piperidin-4-yl}-6-methyl-5H-pyrrolo[3,2-d]pyrimidine-7-carboxamide]
< 1 nM | Cc1cc(-c2ncnc3c(C(=O)N[C@H]4CC[C@H](NC(=O)CO)CC4)c(C)[nH]c23)c(OCC2CC2)cc1F [Example F77, 4-[2-(Cyclopropylmethoxy)-4-fluoro-5-methylphenyl]-N-{trans-4-[(hydroxyacetyl)amino]cyclohexyl}-6-methyl-5H-pyrrolo[3,2-d]pyrimidine-7-carboxamide]
< 1 nM | Cc1[nH]c2c(-c3ccc(F)cc3OCC3CC3)ncnc2c1C(=O)NC1CCN(C(=O)[C@H](C)O)CC1 [Example F12, 4-[2-(Cyclopropylmethoxy)-4-fluorophenyl]-N-{1-[(2S)-2-hydroxypropanoyl]piperidin-4-yl}-6-methyl-5H-pyrrolo[3,2-d]pyrimidine-7-carboxamide]
< 1 nM | COc1cc(OCC2CC2)c(-c2ncnc3c(C(=O)N[C@@H]4CN(C(=O)CO)C[C@H]4O)c(C)[nH]c23)cc1F (relative stereo) [Example F117, 4-[2-(Cyclopropylmethoxy)-5-fluoro-4-methoxyphenyl]-N-[(3R*,4R*)-1-glycoloyl-4-hydroxypyrrolidin-3-yl]-6-methyl-5H-pyrrolo[3,2-d]pyrimidine-7-carboxamide]
< 1 nM | COc1ccc(-c2ncnc3c(C(=O)NC4CCN(C(=O)[C@H](C)O)CC4)c(C)[nH]c23)c(OCC2CC2)c1 [Example F35, 4-[2-(Cyclopropylmethoxy)-4-methoxyphenyl]-N-{1-[(2S)-2-hydroxypropanoyl]piperidin-4-yl}-6-methyl-5H-pyrrolo[3,2-d]pyrimidine-7-carboxamide]

The remaining lines, values behind:

Structure (SMILES) | IC50
CCC(=O)N[C@H]1CC[C@H](NC(=O)c2c(C)[nH]c3c(-c4cc(C)c(F)cc4OCC4CC4)ncnc23)CC1 [Example E123, 4-[2-(Cyclopropylmethoxy)-4-fluoro-5-methylphenyl]-6-methyl-N-[trans-4-(propanoylamino)cyclohexyl]-5H-pyrrolo[3,2-d]pyrimidine-7-carboxamide] | < 1 nM
COc1ccc(-c2ncnc3c(C(=O)N[C@@H]4CCN(C(C)=O)C4)c(C)[nH]c23)c(OCC2CC2)c1 [Example E60, N-[(3R)-1-acetylpyrrolidin-3-yl]-4-[2-(cyclopropylmethoxy)-4-methoxyphenyl]-6-methyl-5H-pyrrolo[3,2-d]pyrimidine-7-carboxamide] | < 1 nM
COc1cc(OCC2CC2)c(-c2nc(C)nc3c(C(=O)NC4CCN(C(C)=O)CC4)c(C)[nH]c23)cc1F [Example E172, N-(1-Acetylpiperidin-4-yl)-4-[2-(cyclopropylmethoxy)-5-fluoro-4-methoxyphenyl]-2,6-dimethyl-5H-pyrrolo[3,2-d]pyrimidine-7-carboxamide] | < 1 nM
COCC(=O)N1CCC(NC(=O)c2c(C)[nH]c3c(-c4c(OCC5CC5)ccc5c4OCO5)ncnc23)CC1 [Example E3, 4-[5-(Cyclopropylmethoxy)-1,3-benzodioxol-4-yl]-N-[1-(methoxyacetyl)piperidin-4-yl]-6-methyl-5H-pyrrolo[3,2-d]pyrimidine-7-carboxamide] | < 1 nM
CC(=O)N1C[C@@H](O)[C@H](NC(=O)c2c(C)[nH]c3c(-c4c(OCC5CC5)ccc5c4OCO5)ncnc23)C1 (relative stereo) [Example E16, N-[(3R*,4R*)-1-acetyl-4-hydroxypyrrolidin-3-yl]-4-[5-(cyclopropylmethoxy)-1,3-benzodioxol-4-yl]-6-methyl-5H-pyrrolo[3,2-d]pyrimidine-7-carboxamide] | < 1 nM
CCC(=O)N[C@H]1CC[C@@H](NC(=O)c2c(C)[nH]c3c(-c4c(OCC5CC5)ccc5c4OCO5)ncnc23)CC1 [Example E10, 4-[5-(Cyclopropylmethoxy)-1,3-benzodioxol-4-yl]-6-methyl-N-[cis-4-(propionylamino)cyclohexyl]-5H-pyrrolo[3,2-d]pyrimidine-7-carboxamide] | < 1 nM
COc1cc(-c2ncnc3c(C(=O)N[C@H]4CC[C@H](NC(C)=O)CC4)c(C)[nH]c23)c(OCC2CC2)cc1F [Example E106, N-(trans-4-Acetamidocyclohexyl)-4-[2-(cyclopropylmethoxy)-4-fluoro-5-methoxyphenyl]-6-methyl-5H-pyrrolo[3,2-d]pyrimidine-7-carboxamide] | < 1 nM
COCC(=O)N1CC[C@@H](NC(=O)c2c(C)[nH]c3c(-c4cc(OC)ccc4OCC4CC4)ncnc23)C1 [Example E77, 4-[2-(Cyclopropylmethoxy)-5-methoxyphenyl]-N-[(3R)-1-(methoxyacetyl)pyrrolidin-3-yl]-6-methyl-5H-pyrrolo[3,2-d]pyrimidine-7-carboxamide] | < 1 nM
CC(=O)N[C@H]1CC[C@H](NC(=O)c2c(C)[nH]c3c(-c4ccc(F)cc4OCC4CC4)ncnc23)CC1 [Example E22, N-(trans-4-acetamidocyclohexyl)-4-[2-(cyclopropylmethoxy)-4-fluorophenyl]-6-methyl-5H-pyrrolo[3,2-d]pyrimidine-7-carboxamide] | < 1 nM
COc1ccc(-c2ncnc3c(C(=O)NC4CCN(C(C)=O)CC4)c(C)[nH]c23)c(OCC2CC2)c1 [Example E55, N-(1-acetylpiperidin-4-yl)-4-[2-(cyclopropylmethoxy)-4-methoxyphenyl]-6-methyl-5H-pyrrolo[3,2-d]pyrimidine-7-carboxamide] | < 1 nM
CCOC(=O)N1CCC(NC(=O)c2c(C)[nH]c3c(-c4cc(OC)c(F)cc4OCC4CC4)ncnc23)CC1 [Example E105, Ethyl 4-[({4-[2-(cyclopropylmethoxy)-4-fluoro-5-methoxyphenyl]-6-methyl-5H-pyrrolo[3,2-d]pyrimidin-7-yl}carbonyl)amino]piperidine-1-carboxylate] | < 1 nM
CCC(=O)N1CC[C@H](NC(=O)c2c(C)[nH]c3c(-c4ccc(F)cc4OCC4CC4)ncnc23)[C@@H](O)C1 (relative stereo) [Example E35, 4-[2-(Cyclopropylmethoxy)-4-fluorophenyl]-N-[(3S*,4S*)-3-hydroxy-1-propanoylpiperidin-4-yl]-6-methyl-5H-pyrrolo[3,2-d]pyrimidine-7-carboxamide] | < 1 nM
CCOc1ccc(C(F)(F)F)cc1-c1ncnc2c(C(=O)NC3CCN(C(C)=O)CC3)c(C)[nH]c12 [Example E99, N-(1-acetylpiperidin-4-yl)-4-[2-ethoxy-5-(trifluoromethyl)phenyl]-6-methyl-5H-pyrrolo[3,2-d]pyrimidine-7-carboxamide] | < 1 nM
COc1cc(-c2ncnc3c(C(=O)N[C@@H]4CCN(C(C)=O)C4)c(C)[nH]c23)c(OCC2CC2)cc1F [Example E179, N-[(3R)-1-Acetylpyrrolidin-3-yl]-4-[2-(cyclopropylmethoxy)-4-fluoro-5-methoxyphenyl]-6-methyl-5H-pyrrolo[3,2-d]pyrimidine-7-carboxamide] | < 1 nM
CCC(=O)N1C[C@@H](O)[C@H](NC(=O)c2c(C)[nH]c3c(-c4cc(OC)c(F)cc4OCC4CC4)ncnc23)C1 (relative stereo) [Example E184, 4-[2-(Cyclopropylmethoxy)-4-fluoro-5-methoxyphenyl]-N-[(3R*,4R*)-4-hydroxy-1-propionylpyrrolidin-3-yl]-6-methyl-5H-pyrrolo[3,2-d]pyrimidine-7-carboxamide] | < 1 nM
CC(=O)N1C[C@@H](O)[C@H](NC(=O)c2c(C)[nH]c3c(-c4ccc(F)cc4OCC4CC4)ncnc23)C1 (relative stereo) [Example E31, N-[(3R*,4R*)-1-acetyl-4-hydroxypyrrolidin-3-yl]-4-[2-(cyclopropylmethoxy)-4-fluorophenyl]-6-methyl-5H-pyrrolo[3,2-d]pyrimidine-7-carboxamide] | 1 to 10 nM
